Calls of active or inactive are those of the source. The calls are words filed in the database; no cut-off is given here.
Key:
A549 [1] = test: Inhibition of glycolysis in human A549 cells assessed as reduction in lactate production incubated for 8 hrs by colorimetric-oxidase mediator analysis; assay type: functional, cell-based
A549 [2] = test: Inhibition of glycolysis in human A549 cells assessed as reduction in glucose consumption incubated for 8 hrs by colorimetric-oxidase mediator analysis; assay type: functional, cell-based

Q: Which inhibition (A549 [1]) does the source give for `O=C(O)C(Cl)Cl` here?
A: Its inhibition is “Active”.

Q: What about the inhibition (A549 [2]) of the same compound?
A: Its inhibition is “Active”.

Source: ChEMBL document CHEMBL5038601, “Carbohydrate-Based NK1R Antagonists with Broad-Spectrum Anticancer Activity” (J Med Chem, 2021)
